Results from BindingDB's records for doi:10.1021/acs.jmedchem.7b00901 (University of South Australia, 2018).

Target: Cyclin-dependent kinase inhibitor 1 (Homo sapiens, UniProt P38936)
Test: Inhibition of p21 (unknown origin)-induced transcription in human HT1080 p21-9-CMV-GFP cells after 3 days by fluorescence assay

Chain of Cyclin-dependent kinase inhibitor 1 (P38936 whole entry): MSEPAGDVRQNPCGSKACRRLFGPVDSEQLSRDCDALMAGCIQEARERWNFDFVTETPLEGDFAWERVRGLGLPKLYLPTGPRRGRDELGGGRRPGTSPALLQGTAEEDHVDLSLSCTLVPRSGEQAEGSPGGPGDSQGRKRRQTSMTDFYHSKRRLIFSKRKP

IC50: 640 nM
SMILES: N#Cc1ccc2ncnc(NCCc3ccccc3)c2c1
